Assays:
BLK = BLK (Homo sapiens, UniProt P51451); assay: AssayQuant Sox-peptide kinase panel, […] compound, […] ATP; […] inhibition; format: biochemical
BRK/PTK6 = BRK/PTK6 (Homo sapiens, UniProt Q13882); assay: as above; format: biochemical
BRK/PTK6, sequence (Q13882 whole entry): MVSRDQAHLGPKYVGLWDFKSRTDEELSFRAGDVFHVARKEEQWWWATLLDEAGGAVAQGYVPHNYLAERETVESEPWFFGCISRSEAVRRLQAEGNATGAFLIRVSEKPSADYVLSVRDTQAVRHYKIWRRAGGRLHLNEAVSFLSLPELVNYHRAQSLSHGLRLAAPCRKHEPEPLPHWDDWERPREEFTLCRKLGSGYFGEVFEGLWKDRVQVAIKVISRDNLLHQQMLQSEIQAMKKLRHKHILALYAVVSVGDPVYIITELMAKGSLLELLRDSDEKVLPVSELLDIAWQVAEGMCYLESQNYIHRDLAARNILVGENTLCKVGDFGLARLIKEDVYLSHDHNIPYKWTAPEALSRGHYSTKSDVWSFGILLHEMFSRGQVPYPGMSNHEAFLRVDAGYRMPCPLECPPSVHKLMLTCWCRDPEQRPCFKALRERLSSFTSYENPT

BLK, sequence (P51451 2-505): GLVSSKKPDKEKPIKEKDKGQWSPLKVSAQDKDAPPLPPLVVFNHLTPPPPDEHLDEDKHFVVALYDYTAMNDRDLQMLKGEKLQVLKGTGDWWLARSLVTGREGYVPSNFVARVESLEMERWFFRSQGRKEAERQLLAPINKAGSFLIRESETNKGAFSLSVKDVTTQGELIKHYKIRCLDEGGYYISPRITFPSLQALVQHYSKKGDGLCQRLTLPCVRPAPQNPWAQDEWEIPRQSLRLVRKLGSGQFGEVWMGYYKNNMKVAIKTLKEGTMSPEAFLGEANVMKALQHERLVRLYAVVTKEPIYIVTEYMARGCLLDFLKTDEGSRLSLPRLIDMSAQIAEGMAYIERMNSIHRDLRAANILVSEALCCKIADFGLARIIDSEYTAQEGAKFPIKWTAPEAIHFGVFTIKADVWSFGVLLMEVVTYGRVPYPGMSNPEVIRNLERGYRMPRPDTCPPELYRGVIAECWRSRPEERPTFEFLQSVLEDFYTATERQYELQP

With GB7208 the “% inhibition at 1 μM” value (BLK) was > 50 and the “% inhibition at 1 μM” value (BRK/PTK6) was > 50.

From publication PMC10337138 (Acta Neuropathologica Communications, 2023)
